In paper PMC13252604, “First Generation Proteolysis Targeting Chimeras (PROTACs) for the Treatment of Progeria” (Advanced Science, 2026):

Key:
[1] = system: HGADFN167 Lmna^G608G/G608G fibroblasts; assay: Cell cycle analysis by flow cytometry; assay type: cell-based, human; conditions: HGADFN167, 5 µM, 20 days
Procedure: Supporting Figure S5. Cell cycle analysis histogram. Flow cytometry analysis of DNA content showing cell cycle distribution with peaks corresponding to G0/G1 (labeled as M1) and G2/M phases, and an intermediate region representing S phase (S/G2/M are labeled as M2). Human progeroid LmnaG608G/G608G fibroblasts (HGADFN167 cells, from The Progeria Research Foundation) were incubated with 5 μM of compound 2 for 20 days and analyzed for DNA content by flow cytometry in a FACSCalibur Flow cytometer (Becton Dickinson). Images shown correspond to one representative analysis and bar graph represents mean±sem of 2 independent experiments performed in duplicate.
*p<0.05 vs HGADFN167 cells, one-way ANOVA. […]
Cells were harvested by trypsin, centrifuged and washed with PBS. Cells pellets were added with 70% (vol/vol) ice-cold ethanol. […] The mixture was then allowed to incubate for 30min at 37 °C in the dark and samples were finally analysed by FACScalibur (Becton Dickinson) flow cytometer […]
(§1) Cells were incubated for 1 h in 1% OsO4 at room temperature and then thoroughly washed with milliQ water. […] The samples were analysed and examined in the transmission electron microscope JEM 1010 at 80 […]
Total RNA of HGPS fibroblasts (HGADFN167) and UCM-18142-treated HGPS fibroblasts were extracted for RNA sequencing. The RNA concentration and integrity were assessed using the Tape Station 4150 system (Agilent). […]

human serum albumin = human serum albumin (Homo sapiens, UniProt P02768); assay: Human serum albumin binding
human serum albumin, sequence (P02768 25-609): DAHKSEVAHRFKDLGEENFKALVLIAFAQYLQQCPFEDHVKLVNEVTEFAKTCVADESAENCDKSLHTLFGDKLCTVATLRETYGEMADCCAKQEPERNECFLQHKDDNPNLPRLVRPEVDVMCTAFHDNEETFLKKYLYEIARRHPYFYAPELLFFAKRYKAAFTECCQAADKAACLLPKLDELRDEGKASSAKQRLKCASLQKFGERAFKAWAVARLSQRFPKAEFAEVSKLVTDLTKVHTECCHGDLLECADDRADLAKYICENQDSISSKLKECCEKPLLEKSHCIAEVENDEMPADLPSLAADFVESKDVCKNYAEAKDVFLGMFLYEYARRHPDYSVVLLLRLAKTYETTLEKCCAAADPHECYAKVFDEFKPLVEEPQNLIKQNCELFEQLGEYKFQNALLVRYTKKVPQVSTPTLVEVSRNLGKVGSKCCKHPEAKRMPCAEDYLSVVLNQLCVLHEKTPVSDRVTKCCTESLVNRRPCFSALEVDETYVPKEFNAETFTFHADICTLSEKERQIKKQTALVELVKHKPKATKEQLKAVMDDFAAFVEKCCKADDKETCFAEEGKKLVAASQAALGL
Text: TABLE 1 Pharmacokinetic parameters of PROTAC 2. | column: HSA binding ^c

[2] = system: HGADFN167 Lmna^G608G/G608G fibroblasts; assay: Transmission electron microscopy of mitochondria; assay type: cell-based, human; conditions: HGADFN167, 5 µM, 20 days
Procedure: Supporting Figure S6. Basal respiration and electronic microscopy analysis of mitochondria in wild type and HGPS cells. (A) PROTAC 2 increases basal respiration (OCR, oxygen consumption rate) in human progeroid cells. Bar graphs show mean±sem of 2 independent experiments performed in duplicate. HGADFN167 LmnaG608G/G608G (progeroid) and HGADFN168 Lmna+/+ (wild type) fibroblasts, provided by the Progeria Research Foundation, were incubated with vehicle or 2 (5 µM) for 20 days. *, p<0.05 vs G608G cells, one-way ANOVA. […]
Mitochondria were evaluated for the integrity of the membrane, matrix and cristae, and were classified as mitochondria with normal morphology (black arrows) or damaged mitochondria (red arrows, with alterations in the membrane, presence of inclusions in the matrix and concentric cristae or “onion-like” mitochondria). […]
Cells were harvested by trypsin, centrifuged and washed with PBS. […] The mixture was then allowed to incubate for 30min at 37 °C in the dark and samples were finally analysed by FACScalibur (Becton Dickinson) flow cytometer […]
as §1

CC1(C)Oc2cc3oc(=O)ccc3cc2C[C@@H]1OC(=O)CCCCCNc1cccc2c1C(=O)N(C1CCC(=O)NC1=O)C2=O (stereo partly shown) [compound 2]
percentage of cells undergoing replication (phases S/G2/M) [1]: increase | HSA binding (human serum albumin): 99% | Kd (human serum albumin; read-out: HSA binding K D): 5.8 µM | number of healthy mitochondria (electron microscopy) [2]: enhances
